The source of these data is ChEMBL document CHEMBL2029272, “7-Azabicyclo[2.2.1]heptane as a scaffold for the development of selective sigma-2 (σ2) receptor ligands” (Bioorg Med Chem Lett, 2012).

Experiment [1] deals with 5-hydroxytryptamine receptor 2A (Homo sapiens) (UniProt P28223). Description: Inhibition of 5-HT2A receptor at 10 uM.
The target of experiment [2] is 5-hydroxytryptamine receptor 7 (Homo sapiens) (UniProt P34969). Description: Inhibition of 5-HT7 receptor at 10 uM.
The target of experiment [3] is T1, 5-hydroxytryptamine receptor 2C (Homo sapiens) (UniProt P28335).
T1 sequence (whole entry): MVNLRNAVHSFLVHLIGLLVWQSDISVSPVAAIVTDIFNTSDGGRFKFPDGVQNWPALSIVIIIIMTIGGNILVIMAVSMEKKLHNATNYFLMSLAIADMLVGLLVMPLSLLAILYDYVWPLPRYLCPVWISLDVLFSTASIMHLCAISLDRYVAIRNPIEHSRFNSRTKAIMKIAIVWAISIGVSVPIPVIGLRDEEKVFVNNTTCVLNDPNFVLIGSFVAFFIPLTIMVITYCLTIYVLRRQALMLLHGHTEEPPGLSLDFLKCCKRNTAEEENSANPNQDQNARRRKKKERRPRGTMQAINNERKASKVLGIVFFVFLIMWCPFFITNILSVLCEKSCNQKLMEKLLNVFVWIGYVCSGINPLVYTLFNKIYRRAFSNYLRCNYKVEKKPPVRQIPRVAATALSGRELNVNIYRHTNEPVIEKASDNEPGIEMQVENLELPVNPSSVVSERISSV
Put plainly: Inhibition of 5-HT2C receptor at 10 uM.

In experiment [4] the target is Kappa-type opioid receptor (Homo sapiens) (UniProt P41145). Description: Inhibition of kappa opioid receptor at 10 uM.
Kappa-type opioid receptor (Homo sapiens), sequence (P41145 whole entry): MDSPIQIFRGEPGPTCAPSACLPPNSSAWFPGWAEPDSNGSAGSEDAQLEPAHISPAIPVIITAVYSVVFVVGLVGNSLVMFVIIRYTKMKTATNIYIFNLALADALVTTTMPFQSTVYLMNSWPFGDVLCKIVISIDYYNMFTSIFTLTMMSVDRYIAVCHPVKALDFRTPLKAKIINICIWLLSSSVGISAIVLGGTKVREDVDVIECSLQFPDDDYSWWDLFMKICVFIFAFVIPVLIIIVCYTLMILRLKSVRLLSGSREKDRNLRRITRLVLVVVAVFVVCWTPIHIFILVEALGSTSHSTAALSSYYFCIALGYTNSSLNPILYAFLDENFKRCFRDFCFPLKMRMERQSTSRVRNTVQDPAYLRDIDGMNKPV
The species entered for experiment [5] is Rattus norvegicus. Description: Inhibition of BZP receptor in rat brain at 10 uM. The experiment is classed as tissue-based.
The target in experiment [6] is Histamine H4 receptor (Homo sapiens) (UniProt Q9H3N8). Description: Inhibition of H4 receptor at 10 uM.
Histamine H4 receptor (Homo sapiens), sequence (Q9H3N8 whole entry): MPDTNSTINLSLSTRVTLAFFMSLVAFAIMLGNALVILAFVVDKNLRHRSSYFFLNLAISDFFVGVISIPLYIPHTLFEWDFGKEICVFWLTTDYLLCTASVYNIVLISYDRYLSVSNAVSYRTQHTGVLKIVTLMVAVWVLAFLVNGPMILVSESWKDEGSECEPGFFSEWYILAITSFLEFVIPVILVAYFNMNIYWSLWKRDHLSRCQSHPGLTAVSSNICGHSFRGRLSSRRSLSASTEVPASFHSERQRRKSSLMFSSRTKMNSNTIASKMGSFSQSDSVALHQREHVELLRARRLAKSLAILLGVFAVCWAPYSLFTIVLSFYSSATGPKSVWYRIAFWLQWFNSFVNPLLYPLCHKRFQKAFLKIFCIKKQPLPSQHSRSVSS
The target of experiment [7] is Sodium-dependent serotonin transporter (Homo sapiens, UniProt P31645). Put plainly: Inhibition of SERT at 10 uM.
Sodium-dependent serotonin transporter, sequence (P31645 whole entry, looked up): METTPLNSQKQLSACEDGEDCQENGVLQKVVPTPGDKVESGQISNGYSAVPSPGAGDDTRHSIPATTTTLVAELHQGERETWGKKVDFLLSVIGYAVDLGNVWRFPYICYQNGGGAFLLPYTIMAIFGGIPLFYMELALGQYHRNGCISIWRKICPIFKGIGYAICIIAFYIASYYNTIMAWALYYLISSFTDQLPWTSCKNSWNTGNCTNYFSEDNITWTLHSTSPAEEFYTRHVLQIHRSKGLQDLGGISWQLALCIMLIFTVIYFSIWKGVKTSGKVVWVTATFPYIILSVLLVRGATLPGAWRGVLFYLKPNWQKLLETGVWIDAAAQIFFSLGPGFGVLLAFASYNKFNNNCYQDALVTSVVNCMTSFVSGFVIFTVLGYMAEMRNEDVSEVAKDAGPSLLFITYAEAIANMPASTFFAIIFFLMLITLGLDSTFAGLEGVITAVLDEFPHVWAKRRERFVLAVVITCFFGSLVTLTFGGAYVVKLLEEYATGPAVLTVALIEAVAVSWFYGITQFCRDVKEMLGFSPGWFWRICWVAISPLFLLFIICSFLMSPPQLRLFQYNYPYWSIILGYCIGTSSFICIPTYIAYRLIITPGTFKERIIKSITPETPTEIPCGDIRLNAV
In experiment [8] the target is Histamine H2 receptor (Homo sapiens) (UniProt P25021). Put plainly: Inhibition of H2 receptor at 10 uM.
Histamine H2 receptor (Homo sapiens), sequence (P25021 whole entry): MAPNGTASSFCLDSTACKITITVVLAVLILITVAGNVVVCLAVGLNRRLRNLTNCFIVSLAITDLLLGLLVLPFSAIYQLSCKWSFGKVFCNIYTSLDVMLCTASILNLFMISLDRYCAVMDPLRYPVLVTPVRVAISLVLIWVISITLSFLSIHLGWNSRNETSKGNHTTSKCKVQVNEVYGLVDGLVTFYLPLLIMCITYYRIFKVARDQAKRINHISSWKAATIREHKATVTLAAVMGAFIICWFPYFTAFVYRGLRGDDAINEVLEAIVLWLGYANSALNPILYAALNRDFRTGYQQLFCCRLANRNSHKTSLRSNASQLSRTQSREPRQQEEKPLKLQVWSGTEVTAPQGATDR
Experiment [9] deals with 5-hydroxytryptamine receptor 6 (Homo sapiens) (UniProt P50406). Description: Inhibition of 5-HT6 receptor at 10 uM.
5-hydroxytryptamine receptor 6 (Homo sapiens), sequence (P50406 whole entry): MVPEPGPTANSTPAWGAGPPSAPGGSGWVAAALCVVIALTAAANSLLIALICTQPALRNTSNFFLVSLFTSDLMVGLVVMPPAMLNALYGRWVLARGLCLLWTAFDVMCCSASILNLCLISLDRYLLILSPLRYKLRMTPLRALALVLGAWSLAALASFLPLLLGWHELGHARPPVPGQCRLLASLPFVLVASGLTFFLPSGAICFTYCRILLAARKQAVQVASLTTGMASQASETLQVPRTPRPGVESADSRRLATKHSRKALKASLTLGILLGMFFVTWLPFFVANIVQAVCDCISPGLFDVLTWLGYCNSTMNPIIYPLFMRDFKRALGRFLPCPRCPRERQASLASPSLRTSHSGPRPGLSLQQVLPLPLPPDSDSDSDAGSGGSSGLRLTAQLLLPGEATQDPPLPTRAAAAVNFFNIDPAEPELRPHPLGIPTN
Experiment [10] deals with T2, D(4) dopamine receptor (Homo sapiens) (UniProt P21917).
T2 sequence (whole entry): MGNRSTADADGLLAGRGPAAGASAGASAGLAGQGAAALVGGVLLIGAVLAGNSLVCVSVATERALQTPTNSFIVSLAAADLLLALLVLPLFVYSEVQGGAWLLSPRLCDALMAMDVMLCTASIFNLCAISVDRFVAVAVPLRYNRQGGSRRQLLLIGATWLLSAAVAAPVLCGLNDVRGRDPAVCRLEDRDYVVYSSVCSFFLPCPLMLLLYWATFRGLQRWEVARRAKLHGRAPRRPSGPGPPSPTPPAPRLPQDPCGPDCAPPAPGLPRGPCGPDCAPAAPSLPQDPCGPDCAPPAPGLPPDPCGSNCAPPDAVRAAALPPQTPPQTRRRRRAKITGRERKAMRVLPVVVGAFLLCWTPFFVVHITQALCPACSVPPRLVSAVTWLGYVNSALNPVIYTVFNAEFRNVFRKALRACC
Put plainly: Inhibition of D4 dopamine receptor at 10 uM.

Experiment [11] in a line: Displacement of [3H]DTG from sigma2 receptor in […]. In kind it is cell-based. The conditions noted are these: pc-12. (In a radioligand displacement assay an active substance lowers the binding of a labelled ligand.)
The target in experiment [12] is Mu-type opioid receptor (Homo sapiens) (UniProt P35372). Description: Inhibition of mu opioid receptor at 10 uM.
Mu-type opioid receptor (Homo sapiens), sequence (P35372 whole entry): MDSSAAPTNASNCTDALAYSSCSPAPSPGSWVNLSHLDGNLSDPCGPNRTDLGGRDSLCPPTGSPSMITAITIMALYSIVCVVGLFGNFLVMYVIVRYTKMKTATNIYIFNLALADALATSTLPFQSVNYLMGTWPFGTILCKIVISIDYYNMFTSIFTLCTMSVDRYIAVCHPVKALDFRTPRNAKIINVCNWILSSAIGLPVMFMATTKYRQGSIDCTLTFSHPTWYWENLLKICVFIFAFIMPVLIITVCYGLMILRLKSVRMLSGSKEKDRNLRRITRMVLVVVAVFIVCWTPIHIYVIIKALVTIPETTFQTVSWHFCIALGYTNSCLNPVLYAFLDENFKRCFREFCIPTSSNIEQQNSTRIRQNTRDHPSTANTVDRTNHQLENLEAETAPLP
Experiment [13] deals with 5-hydroxytryptamine receptor 2B (Homo sapiens) (UniProt P41595). Put plainly: Inhibition of 5-HT2B receptor at 10 uM.
5-hydroxytryptamine receptor 2B (Homo sapiens), sequence (P41595 whole entry): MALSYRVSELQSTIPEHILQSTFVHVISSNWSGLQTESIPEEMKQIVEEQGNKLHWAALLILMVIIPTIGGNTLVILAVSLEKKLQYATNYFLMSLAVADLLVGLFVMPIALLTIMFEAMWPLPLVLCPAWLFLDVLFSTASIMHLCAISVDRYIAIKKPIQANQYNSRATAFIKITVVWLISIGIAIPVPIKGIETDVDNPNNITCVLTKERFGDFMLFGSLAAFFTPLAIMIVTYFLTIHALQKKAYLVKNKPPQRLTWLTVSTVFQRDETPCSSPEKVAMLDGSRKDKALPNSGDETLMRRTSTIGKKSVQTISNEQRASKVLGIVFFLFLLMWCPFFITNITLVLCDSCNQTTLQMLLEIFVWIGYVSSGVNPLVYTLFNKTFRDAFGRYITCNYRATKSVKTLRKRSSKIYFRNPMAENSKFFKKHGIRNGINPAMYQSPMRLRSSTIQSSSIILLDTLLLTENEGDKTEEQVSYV
Experiment [14] concerns the target Beta-2 adrenergic receptor (Homo sapiens) (UniProt P07550). Put plainly: Inhibition of beta2 adrenergic receptor at 10 uM.
Experiment [15] has as its target T3, Alpha-2A adrenergic receptor (Homo sapiens) (UniProt P08913).
T3 sequence (whole entry): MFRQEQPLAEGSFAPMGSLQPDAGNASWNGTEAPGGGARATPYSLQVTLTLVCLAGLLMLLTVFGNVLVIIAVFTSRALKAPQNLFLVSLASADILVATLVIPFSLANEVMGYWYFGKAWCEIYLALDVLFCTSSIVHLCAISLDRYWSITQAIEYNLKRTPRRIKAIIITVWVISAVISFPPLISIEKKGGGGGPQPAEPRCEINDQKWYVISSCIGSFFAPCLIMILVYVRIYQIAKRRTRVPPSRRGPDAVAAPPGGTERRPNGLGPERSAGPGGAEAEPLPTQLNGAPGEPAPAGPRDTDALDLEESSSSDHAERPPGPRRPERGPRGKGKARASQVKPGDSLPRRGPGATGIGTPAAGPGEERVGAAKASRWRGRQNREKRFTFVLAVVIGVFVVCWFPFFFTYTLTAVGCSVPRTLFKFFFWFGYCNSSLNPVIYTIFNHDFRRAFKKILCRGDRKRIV
Description: Inhibition of alpha2A adrenergic receptor at 10 uM.

The target of experiment [16] is T4, Alpha-1D adrenergic receptor (Homo sapiens) (UniProt P25100).
T4 sequence (whole entry): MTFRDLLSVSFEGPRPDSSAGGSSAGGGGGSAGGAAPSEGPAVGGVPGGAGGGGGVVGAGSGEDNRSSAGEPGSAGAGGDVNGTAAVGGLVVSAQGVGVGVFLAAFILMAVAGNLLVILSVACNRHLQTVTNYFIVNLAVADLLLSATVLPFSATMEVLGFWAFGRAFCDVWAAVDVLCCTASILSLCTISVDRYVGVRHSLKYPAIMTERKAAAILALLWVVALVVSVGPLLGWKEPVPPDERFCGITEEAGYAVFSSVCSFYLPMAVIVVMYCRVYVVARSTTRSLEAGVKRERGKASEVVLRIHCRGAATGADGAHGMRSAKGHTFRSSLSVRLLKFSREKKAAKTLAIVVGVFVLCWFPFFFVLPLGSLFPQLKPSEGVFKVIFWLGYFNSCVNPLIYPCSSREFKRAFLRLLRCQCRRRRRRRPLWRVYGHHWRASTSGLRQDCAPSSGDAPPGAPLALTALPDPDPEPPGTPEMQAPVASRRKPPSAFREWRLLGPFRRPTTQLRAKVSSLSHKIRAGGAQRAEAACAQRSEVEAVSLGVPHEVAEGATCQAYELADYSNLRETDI
Put plainly: Inhibition of alpha1D adrenergic receptor at 10 uM.

Bounds are passed on as bounds.

5-hydroxytryptamine receptor 7 (Homo sapiens), sequence (P34969 whole entry): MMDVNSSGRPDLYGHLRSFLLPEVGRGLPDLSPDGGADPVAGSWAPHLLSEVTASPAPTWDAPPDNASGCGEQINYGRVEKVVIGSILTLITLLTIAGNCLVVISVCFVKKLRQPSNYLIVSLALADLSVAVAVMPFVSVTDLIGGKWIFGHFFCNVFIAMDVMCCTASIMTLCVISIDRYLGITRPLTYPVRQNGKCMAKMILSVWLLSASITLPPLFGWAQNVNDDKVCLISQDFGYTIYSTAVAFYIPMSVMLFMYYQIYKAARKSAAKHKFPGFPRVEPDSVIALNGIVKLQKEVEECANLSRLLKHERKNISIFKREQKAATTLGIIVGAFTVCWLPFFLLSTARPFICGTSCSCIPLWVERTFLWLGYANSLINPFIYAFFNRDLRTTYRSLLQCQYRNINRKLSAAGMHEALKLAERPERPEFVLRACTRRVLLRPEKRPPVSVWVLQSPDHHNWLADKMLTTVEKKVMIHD
Beta-2 adrenergic receptor (Homo sapiens), sequence (P07550 whole entry, looked up): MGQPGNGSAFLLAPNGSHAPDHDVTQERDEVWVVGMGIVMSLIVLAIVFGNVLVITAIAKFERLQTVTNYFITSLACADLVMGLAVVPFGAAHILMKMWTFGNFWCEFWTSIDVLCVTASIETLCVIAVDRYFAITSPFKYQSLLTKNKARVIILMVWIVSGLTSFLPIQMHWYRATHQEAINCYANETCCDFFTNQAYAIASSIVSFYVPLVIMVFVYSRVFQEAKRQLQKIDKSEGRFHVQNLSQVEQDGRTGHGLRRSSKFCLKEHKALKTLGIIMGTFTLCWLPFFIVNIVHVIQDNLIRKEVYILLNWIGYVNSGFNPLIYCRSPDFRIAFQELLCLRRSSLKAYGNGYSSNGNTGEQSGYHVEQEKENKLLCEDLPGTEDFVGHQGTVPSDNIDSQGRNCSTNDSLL
5-hydroxytryptamine receptor 2A (Homo sapiens), sequence (P28223 whole entry): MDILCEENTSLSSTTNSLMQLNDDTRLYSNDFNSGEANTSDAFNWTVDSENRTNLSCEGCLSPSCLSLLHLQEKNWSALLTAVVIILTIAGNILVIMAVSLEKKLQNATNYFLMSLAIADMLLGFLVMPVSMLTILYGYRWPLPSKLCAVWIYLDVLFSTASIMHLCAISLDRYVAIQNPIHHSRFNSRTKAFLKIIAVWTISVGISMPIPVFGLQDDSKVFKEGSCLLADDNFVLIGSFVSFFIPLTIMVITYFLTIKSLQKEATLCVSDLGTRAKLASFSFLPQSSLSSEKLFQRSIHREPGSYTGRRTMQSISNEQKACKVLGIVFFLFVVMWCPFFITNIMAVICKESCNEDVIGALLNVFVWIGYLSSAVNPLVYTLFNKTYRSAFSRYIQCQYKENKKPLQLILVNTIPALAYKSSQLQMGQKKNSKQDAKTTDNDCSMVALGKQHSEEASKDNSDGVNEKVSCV

One may read the inhibition as how much of the control response was suppressed. Higher therefore signals a strong effect. As usually defined, the Ki is a measure of affinity in units of concentration, obtained from inhibition or displacement. Higher therefore signals a looser hold on the target. Regarding `C1CCC(CN2C3CCC2CC3)CC1`, the inhibition in experiment [1], in experiment [2], in experiment [3], in [4], in [5] and in [6] was below 50% in each case. Also, the inhibition in [7], in experiment [8], in experiment [9], in experiment [10], in experiment [12] and in experiment [13] was below 50% each time. Also, the inhibition in experiment [14], in [15] and in [16] was below 50% each time. This molecule displayed an inhibition constant Ki in [11] of 18 nM.
As to `C1CCC(CN2CCCC2)CC1`, the inhibition in [1], in [2], in experiment [3], in [4], in experiment [5] and in experiment [6] was below 50% in each case. Besides, the inhibition in [7], in experiment [8], in experiment [9], in experiment [10], in experiment [12] and in [13] was below 50% throughout. Moreover, the inhibition in [14], in experiment [15] and in [16] was below 50% each time. Besides, the affinity in [11], expressed as Ki, was 410 nM.
For `C1CC2CCC1N2CC12C3C4C5C3C1C5C42` (stereo not drawn), the inhibition in [1], in experiment [2], in experiment [3], in [4], in experiment [5] and in experiment [6] was below 50% throughout. For the same molecule, the inhibition in [7], in [8], in experiment [9], in experiment [10], in experiment [12] and in [13] was below 50% throughout. Also, the inhibition in [14], in experiment [15] and in experiment [16] was below 50% each time. The molecule also returned a Ki in experiment [11] of 18 nM.
